“And” between values parts separate entries of the source, which are not always exact repeats. Equal entries are not always repeated. Where two headings read alike, the source gives them in different places.

For orientation: IC50 means the concentration that inhibits the measured activity by half.

The subject of series [1] is Tetrabenazin-Ptosis. The series can be described thus: Effect on tetrabenazine ptosis (TBZ method, Methode 1). Type of series: in vivo, Maus. The conditions noted are these: for ED50: Mus musculus. The protocol: Sechs männl. Tieren wird die entsprechende Menge eines Homogenats der jeweiligen Substanz in wäßriger Carboxymethylcellulose oder Methyl-hydroxyethylcellulose 30 Min. vor der Behandlung mit Tetrabenazin (40 mg/kg intraperitoneal) mit Schlundsonde gefüttert. […]

Series [2] has as its system Yohimbin-Toxizität. As to the kind of experiment: Potentiation of yohimbine toxicity in mice (Methode 2). In kind it is in vivo, Maus. The conditions noted are these: Methode 2, mouse; for LD50, mg/kg p.o.: 1 h before yohimbine hydrochloride 20 mg/kg s.c., deaths after 18 h. The protocol: Die Toxizität von Yohimbin, einem Blocker präsynaptischer alpha-Rezeptoren, wird durch Antidepressiva potenziert (Literatur R.M. Quinton, Brit. J. Pharmac. 21 , 55-56 (1963)). Männliche Mäuse, NMRI-Stamm, 20-22 g, wurden in Versuchsgruppen zu n = 10 zugeordnet. Das Prüfpräparat wurde in 1 %igem wäßrigen Tylose@-Schleim suspendiert und im Volumen 10 ml/kg oral gegeben. Kontrollen erhielten nur das Vehikel.
Nach einer Vorbehandlungszeit von 1 Stunde erhielten alle Tiere eine allein nicht toxische Dosis von Yohimbin-Hydrochlorid, 20 mg/kg subkutan. Die verstorbenen Tiere wurden 18 Stunden nach dieser Behandlung ermittelt. (Berechnung der LDso mit Probit-Analyse).

The subject of series [3] is Stereotypien. As to the kind of experiment: Induction of stereotypies in rats (Methode 3). Type of series: in vivo. The following applies: Methode 3, rat, p.o.; dose up to which no stereotypies were seen. From the text:
Die Versuche wurden an Wistar-Ratten, männlich, 130-140 g durchgeführt. Die Stereotypien wurden in den ersten beiden Stunden nach Substanzgabe in 15-Minuten-Intervallen beurteilt, danach bis zur 6. Stunde in halbstündigen Intervallen. Die folgende Skala wurde benutzt.
Die Punktzahlen wurden errechnet alß Gesamtzahl pro 6 Stunden, dividiert durch die Zahl der Beobachtungen.
Der EDso-Wert ist die Dosis, bei der die Hälfte der maximal möglichen Punktzahl (5 Punkte multipliziert mit der Zahl der Beobachtungen) erreicht wird.

In series [4] the test system is Aufnahme von 14C-Noradrenalin in Synaptosomen. The series can be described thus: Inhibition of noradrenaline reuptake in synaptosomes (Methode 4). In kind it is biochemical, Ratte. The following applies: 50 % inhibition of 14C-noradrenaline uptake, 37 °C, 4 min. The protocol:
Synaptosomen aus Rattenhirn werden nach der Methode von Whittaker (Handbook of Neurochemistry 2 , 327-364, Editor A. Lajtha; London and New York, 1969) isoliert und die Monoamin-Aufnahme nach der Methode von Schacht und Heptner gemessen (Biochemical Pharmac. 23 , 3413-3422). Die 14C Noradrenalin-Aufnahme wurde in einem Krebs-Henseleit-Bikarbonatpuffer pH 7,4, der 11 Millimol Glucose enthielt, gemessen. 2,5 ml der Synaptosomen-Suspension wurden mit markiertem Noradrenalin bei 37 ° C inkubiert in Gegenwart von oder ohne Testsubstanz. Die Inkubationszeit betrug 4 Minuten. Die weitere Aufnahme wurde dann durch Abkühlen mit Eis gestoppt. Um nichtspezifische Adsorptionen auszuschließen, wurden Kontrollproben bei 0 ° C unter sonst gleichen Bedingungen inkubiert.
Die aufgenommenen Noradrenalinmengen wurden mit Hilfe der Membranfiltrationstechnik mit einem Millipore Sampling Manifold mit Cellulosenitratfiltern von 25 mm Durchmesser und 0,6 Mikrometer Porengröße gemessen. Die Synaptosomen wurden unter vermindertem Druck gesammelt und die Radioaktivität in einem Packard-Tricarb-Scintillationszähler bestimmt. Die Menge an angesammeltem Noradrenalin wurde angegeben als Prozent Radioaktivität, die zur Inkubationsmischung zugesetzt wurde.
Die ICso-Werte (inhibitory concentration) der nachstehenden Tabellen geben die Konzentrationen der Testsubstanzen an, welche die Aufnahme von ^14C-Noradrenalin zu 50 % hemmen.

Series [5] deals with Tiermodelle, prädiktiv für antidepressive Wirkung beim Menschen. The series can be described thus: General pharmacological testing in animal models predictive of antidepressant action in man. The conditions noted are these: result in words. In kind it is in vivo. From the text:
Bei der pharmakologischen Untersuchung des (+)-Enantiomeren der Verbindung der Formel I wurden unerwartet starke Wirkungen dieser Substanz in Tiermodellen, die als prädiktiv für antidepressive Wirkung beim Menschen gelten, gefunden.
Die pharmakologischen Prüfungen wurden mit bekannten Modellen, die als prädiktiv für antidepressive Wirkung beim Menschen gelten, durchgeführt. Das sind beispielsweise: die Beeinflussung der Tetrabenazin-Ptosis bei der Maus und die Potenzierung der Yohimbin-Toxizität bei Mäusen. Als weiteres Beurteilungskriterium wurde beispielsweise die Prüfung der Auslösung von Stereotypien an Ratten herangezogen.

Series [6] shares this test system. The conditions noted are these: as named in Deutsche Patentanmeldung P 36 28 545.5; cited from earlier work.
Where [7] appears, read: Methode 1, mouse, 30 min before tetrabenazine 40 mg/kg i.p., confidence limits in brackets, repeated determinations.
Where [8] appears, read: read-out: ED50, mg/kg p.o. (Vertrauensgrenzen), Methode 1, mouse, 30 min before tetrabenazine 40 mg/kg i.p., confidence limits in brackets, repeated determinations.
Where [9] appears, read: Methode 1, mouse, p.o., 30 min before tetrabenazine 40 mg/kg i.p., confidence limits in brackets, repeated determinations, read-out: ED50, mg/kg p.o. (Vertrauensgrenzen).

Turning to `OC1(C(c2cccc(Cl)c2)n2ccnc2)C2CC3CC(C2)CC1C3` (single isomer, unassigned), the “ED50; mg/kg p.o. (Vertrauensgrenzen)” value in series [1] (setting [7]) is 2,3 (0,9-5,8) mg/kg. In addition, the ED50 in series [1] (setting [8]) stood at 2.9 mg/kg. Also, the entries for the “LD50, mg/kg p.o.” value in series [2] and in series [2] (1080 min) were 8,5 (0,5-130) mg/kg and 4,6 mg/kg, respectively. Further, the “keine Stereotypien bis” value in series [3] was more than 30 mg/kg. For the same compound, in series [4], it took 120 nM to reach half-maximal inhibition (IC50).

Turning to `OC1(C(c2cccc(Cl)c2)n2ccnc2)C2CC3CC(C2)CC1C3` (single isomer, unassigned; (+)) [(+)-(2-Hydroxy-2-adamantyl)-1-imidazolyl-(3-chlorphenyl)-methan], in series [5], the “pharmakologische Wirkung” value was “geringere Wirkung”.

As to `C=CCC1(C(O)C(c2cccc(Cl)c2)n2ccnc2)CCCCC1` (stereo not drawn), the “ED50; mg/kg p.o. (Vertrauensgrenzen)” value in series [1] (setting [7]) was 6,1 (0,5-72,9) mg/kg. The ED50 in series [1] (setting [8]) was 3.9 mg/kg.

Take `Cc1cccc(C(n2ccnc2)C2(O)C3CC4CC(C3)CC2C4)c1` (stereo not drawn) [(2-Hydroxy-2-adamantyl)-1-imidazolyl-3-tolyl-methan]: the “antidepressive Wirkung in prädiktiven Tiermodellen” value in series [6] was “antidepressiv wirksam”.

With `CC(C)(C)C(O)C(c1ccc(-c2ccccc2)cc1)n1ccnc1` (stereo not drawn), the ED50 in series [1] (setting [9]) turned out to be 3 mg/kg. The “LD50, mg/kg p.o.” value in series [2] is 5,3 mg/kg. Moreover, in series [3], the “keine Stereotypien bis” value is given as more than 30 mg/kg. This compound also showed an IC50 in series [4] of more than 1000 nM.

Regarding `Cc1cccc(C(n2ccnc2)C2(O)C3CC4CC(C3)CC2C4)c1` (single isomer, unassigned; enantiomere) [(-)-Enantiomere der Verbindung I], the “pharmakologische Wirkung” value in series [5] is given as “pharmakologisch unwirksam”.

With `Cc1cccc(C(n2ccnc2)C2(O)C3CC4CC(C3)CC2C4)c1` (single isomer, unassigned; (+)) [Beispiel 1], in series [1] (setting [7]), the “ED50; mg/kg p.o. (Vertrauensgrenzen)” value was 1,2 (0,3 - 3,5) mg/kg and 1,9 (1,0 - 3,5) mg/kg and 1,4 (0,7 - 2,7) mg/kg. In addition, the ED50 in series [1] (setting [8]) was 1.3 mg/kg and 1.75 mg/kg. Also, the “LD50, mg/kg p.o.” value in series [2] is listed as 2,9 (0,2 - 41,3) mg/kg. In series [2] (p.o., tested as hydrogentartrate, converted to equimolar amount of base, 1080 min), the “LD50 umgerechnet (F:O,68) auf äquimolare Menge Base (nach Beispiel 2)” value is recorded as 2,0 (0,1 - 28,1) mg/kg. For the same compound, the “keine Stereotypien bis” value in series [3] is given as “keine Stereotypien bis 100 mg/kg p.o”.

Turning to `OC1(C(c2ccc3ccccc3c2)n2ccnc2)C2CC3CC(C2)CC1C3` (stereo not drawn), the ED50 in series [1] (setting [8]) was 3 mg/kg. In addition, the “LD50, mg/kg p.o.” value in series [2] is on record as 3,2 mg/kg.

Take `OC1(C(c2cccc(Cl)c2)n2ccnc2)C2CC3CC(C2)CC1C3` (stereo not drawn): in series [2], the “LD50, mg/kg p.o.” value is 4,4 mg/kg. In series [3], the “keine Stereotypien bis” value is given as more than 300 mg/kg.

Consider `CCCC(C)(C)C(O)C(c1ccc(-c2ccccc2)cc1)n1ccnc1` (stereo not drawn), for which the “LD50, mg/kg p.o.” value in series [2] is 24,5 mg/kg. Also, in series [3], the “keine Stereotypien bis” value is on record as “keine Stereotypien”.

In the case of `COc1ccc(C(n2ccnc2)C2(O)C3CC4CC(C3)CC2C4)cc1OC` (stereo not drawn), the ED50 in series [1] (setting [8]) is 3 mg/kg. In addition, the “LD50, mg/kg p.o.” value in series [2] is 3,0 mg/kg.

With `Cc1cccc(C(n2ccnc2)C2(O)C3CC4CC(C3)CC2C4)c1` (stereo not drawn) [drawing 18], the “ED50; mg/kg p.o. (Vertrauensgrenzen)” value in series [1] (setting [7]) is 1,7 (0,5-5,9) mg/kg. For the same compound, the ED50 in series [1] (setting [8]) came to 1.5 mg/kg. Also, the “LD50, mg/kg p.o.” value in series [2] is 7,1 mg/kg. Further, the “keine Stereotypien bis” value in series [3] is more than 30 mg/kg. Moreover, the 50% inhibitory concentration (IC50) in series [4] is 120 nM.

As to `OC(C(c1cccc(Cl)c1)n1ccnc1)C12CC3CC(CC(C3)C1)C2` (stereo not drawn), the ED50 in series [1] (setting [9]) is 3.7 mg/kg. Further, in series [2], the “LD50, mg/kg p.o.” value is on record as 8,5 mg/kg. Besides, the “keine Stereotypien bis” value in series [3] was more than 30 mg/kg.
